Among the data in publication PMC9527342, “An in vitro assay for enzymatic studies on human ALG13/14 heterodimeric UDP-N-acetylglucosamine transferase” (Frontiers in Cell and Developmental Biology, 2022) are Km and Relative activity (%): GnTase conversion rate of the mutant / that of the wild type, detergent extract of E. coli membranes, 0.1 ng/ul ALG13, 37°C, 15 min values, retold here.

Experiment [1] has as its target T1, recombinant human ALG13/14 complex (FLAG-ALG13-iso2/6His-ALG14) (Homo sapiens, UniProt Q96F25+Q9NP73).
T1 construct: pelB-FLAG-ALG13-iso2 (25 kDa on SDS-PAGE) and 6His-ALG14 (22 kDa) co-expressed in E. coli Rosetta (DE3); purified from Triton X-100 membrane extract by HisTrap and anti-FLAG; tags kept; heterodimer, 45-66 kDa on native PAGE
T1 sequence (Q9NP73 1-165 isoform Q9NP73-2): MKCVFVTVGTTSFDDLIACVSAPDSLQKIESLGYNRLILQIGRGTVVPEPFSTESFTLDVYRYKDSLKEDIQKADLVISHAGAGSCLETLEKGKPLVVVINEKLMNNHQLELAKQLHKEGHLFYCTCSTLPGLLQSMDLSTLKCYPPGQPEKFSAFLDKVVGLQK
T1 sequence (Q96F25 1-216): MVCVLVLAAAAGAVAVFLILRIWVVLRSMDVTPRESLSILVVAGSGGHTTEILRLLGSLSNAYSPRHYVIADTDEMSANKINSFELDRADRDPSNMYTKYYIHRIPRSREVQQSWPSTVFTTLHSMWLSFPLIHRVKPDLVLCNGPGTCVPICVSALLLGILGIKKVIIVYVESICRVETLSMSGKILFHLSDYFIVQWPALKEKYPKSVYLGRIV
Kind of experiment: LC-MS (UPLC-ESI-MS) of acid-released glycans, Michaelis-Menten fit. To be noted: acceptor 20-100 μM; 2 mM UDP-GlcNAc fixed; Tris/HCl pH 7.5, 0.3% NP-40, 23% glycerol, 37 °C, 15 min; no added metal; read-out: K m (apparent). The experiment is classed as biochemical.

Experiment [2] concerns the target T2, 6His-ALG14 (human ALG14) (human) (UniProt Q96F25).
T2 sequence: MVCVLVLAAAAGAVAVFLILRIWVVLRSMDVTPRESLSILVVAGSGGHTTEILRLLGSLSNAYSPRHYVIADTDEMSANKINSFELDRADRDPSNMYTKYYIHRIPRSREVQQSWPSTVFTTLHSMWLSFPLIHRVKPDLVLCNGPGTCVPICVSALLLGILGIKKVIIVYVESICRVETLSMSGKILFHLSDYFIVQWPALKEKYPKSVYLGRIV

As to `CC(=O)N[C@H]1[C@@H](OP(=O)(O)OP(=O)(O)OCC[C@@H](C)CC/C=C(/C)CC/C=C(/C)CC/C=C(/C)CC/C=C(/C)CC/C=C(/C)CC/C=C(/C)CC/C=C(/C)CC/C=C(/C)CC/C=C(/C)CC/C=C(/C)CC/C=C(/C)CC/C=C(/C)CC/C=C(/C)CC/C=C(/C)CC/C=C(/C)CC/C=C(\C)CC/C=C(\C)CCC=C(C)C)O[C@H](CO)[C@@H](O)[C@@H]1O` [Gn-PDol (C95)], in experiment [1], the Km turned out to be 94.1 ± 9.4 µM.

B1: FLAG-tagged ALG13-iso2 T141L (natural protein)
chain: MKCVFVTVGTTSFDDLIACVSAPDSLQKIESLGYNRLILQIGRGTVVPEPFSTESFTLDVYRYKDSLKEDIQKADLVISHAGAGSCLETLEKGKPLVVVINEKLMNNHQLELAKQLHKEGHLFYCTCSTLPGLLQSMDLSLLKCYPPGQPEKFSAFLDKVVGLQK
The molecule B1 came in with a Relative activity (%): GnTase conversion rate of the mutant / that of the wild type, detergent extract of E. coli membranes, 0.1 ng/ul ALG13, 37°C, 15 min in experiment [2] of 26%.
